Assay results taken from US5681836A, “Methanesulfonate salts of antipsychotic benzofuran derivatives” (Merck, Sharp & Dohme, Ltd., priority 1995, dated 1997).
Structures can show the parent of a compound that is named as a salt.

Target: T1, human dopamine D4 receptor subtype (Homo sapiens, UniProt P21917)
T1 sequence (P21917 1-419): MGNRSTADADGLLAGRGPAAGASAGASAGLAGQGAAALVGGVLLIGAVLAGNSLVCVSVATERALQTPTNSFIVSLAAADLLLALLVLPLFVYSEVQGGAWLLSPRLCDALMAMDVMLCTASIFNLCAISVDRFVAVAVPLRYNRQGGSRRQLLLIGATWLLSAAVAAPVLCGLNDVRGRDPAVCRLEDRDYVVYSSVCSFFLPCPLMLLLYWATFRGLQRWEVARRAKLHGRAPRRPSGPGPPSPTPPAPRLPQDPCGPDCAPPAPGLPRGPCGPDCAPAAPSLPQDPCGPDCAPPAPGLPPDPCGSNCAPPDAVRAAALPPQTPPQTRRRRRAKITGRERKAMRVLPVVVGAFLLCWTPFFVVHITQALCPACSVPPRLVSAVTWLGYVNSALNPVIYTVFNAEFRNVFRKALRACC
Test: [3H]-Spiperone binding (displacement) studies, human dopamine D4 receptor subtype expressed in clonal cell lines
Conditions: 0.2 nM [3H]-spiperone for displacement; 60 min, room temperature (22° C.), pH 7.4; membranes of clonal cell lines; read-out: Ki value for displacement of [3H]-spiperone from the human dopamine D4 receptor subtype
Method: Moreover, these salts display a selective affinity for the D4 subtype relative to the D2 subtype.
Clonal cell lines expressing the human dopamine D4 receptor subtype were harvested in PBS and then lysed in 10 mM Tris-HCl pH 7.4 buffer containing 5 mM MgSO4 for 20 min on ice. Membranes were centrifuged at 50,000 g for 15 min at 4° C. and the resulting pellets resuspended in assay buffer (50 mM Tris-HCl pH 7.4 containing 5 mM EDTA, 1.5 mM CaCl2, 5 mM MgCl2, 5 mM KCl, 120 mM NaCl, and 0.1% ascorbic acid) at 20 mg/ml wet weight. Incubations were carried out for 60 min at room temperature (22° C.) in the presence of 0.05-2 nM [^3 H]-spiperone or 0.2 nM for displacement studies and were initiated by addition of 20-100 μg protein in a final assay volume of 0.5 ml. The incubation was terminated by rapid filtration over GF/B filters presoaked in 0.3% PEI and washed with 10 ml ice-cold 50 mM Tris-HCl, pH 7.4. Specific binding was determined by 10 μM apomorphine and radioactivity determined by counting in a LKB beta counter. Binding parameters were determined by non-linear least squares regression analysis, from which the inhibition constant Ki could be calculated for each test compound.

- Ki: < 1.5 µM
Compound: C1=C(/C=C/c2ccccc2)CCN(Cc2coc3ccccc23)C1 [Example 1, (E)-3-[4-(2-Phenylethenyl)-1,2,3,6-tetrahydropyridin-1-yl]methylbenzo[b]furan methanesulfonate salt]
